# Measured values: US20260262643A1, “HERBICIDAL BENZOXAZINES” (FMC CORPORATION, priority 2022, published 2026)
# Experiments:
# [1] = tested on: oat, wild; test: Test C postemergence; type: in vivo, Avena fatua; conditions: 10 days, 0 to 100 scale (0 no effect, 100 complete control)
# Method in brief: (§1)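 Seeds sown in loam soil–sand blend received a directed preemergence soil spray of test chemical in non-phytotoxic solvent with surfactant; postemergence plants (2–10 cm, one- to two-leaf stage) were sprayed with the same formulation. Greenhouse-held 10 days, then visually rated for injury versus untreated controls, 0 (no effect) to 100 (complete control).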
# [2] = tested on: wheat; test: Test C postemergence; type: in vivo, Triticum aestivum; conditions: 10 days, 0 to 100 scale (0 no effect, 100 complete control)
# Method in brief: as §1
# [3] = tested on: ragweed; test: Test C postemergence; type: in vivo, Ambrosia artemisiifolia; conditions: 10 days, 0 to 100 scale (0 no effect, 100 complete control)
# Method in brief: as §1
# [4] = tested on: ragweed; test: Test C preemergence; type: in vivo, Ambrosia artemisiifolia; conditions: preemergence, 0 to 100 scale (0 no effect, 100 complete control)
# Method in brief: as §1
# [5] = tested on: green foxtail; test: Test C postemergence; type: in vivo, Setaria viridis; conditions: 10 days, 0 to 100 scale (0 no effect, 100 complete control)
# Method in brief: as §1
# [6] = tested on: ryegrass, Italian; test: Test C postemergence; type: in vivo, Lolium multiflorum; conditions: 10 days, 0 to 100 scale (0 no effect, 100 complete control)
# Method in brief: as §1
# [7] = tested on: ryegrass, Italian; test: Test C preemergence; type: in vivo, Lolium multiflorum; conditions: preemergence, 0 to 100 scale (0 no effect, 100 complete control)
# Method in brief: as §1
# [8] = tested on: kochia; test: Test C preemergence; type: in vivo, Bassia scoparia; conditions: preemergence, 0 to 100 scale (0 no effect, 100 complete control)
# Method in brief: as §1
# [9] = tested on: corn; test: Test C preemergence; type: in vivo, Zea mays; conditions: preemergence, 0 to 100 scale (0 no effect, 100 complete control)
# Method in brief: as §1
# [10] = tested on: kochia; test: Test C postemergence; type: in vivo, Bassia scoparia; conditions: 10 days, 0 to 100 scale (0 no effect, 100 complete control)
# Method in brief: as §1
# [11] = tested on: pigweed, palmer; test: Test C preemergence; type: in vivo, Amaranthus palmeri; conditions: preemergence, 0 to 100 scale (0 no effect, 100 complete control)
# Method in brief: as §1
# [12] = tested on: soybean; test: Test C preemergence; type: in vivo, Glycine max; conditions: preemergence, 0 to 100 scale (0 no effect, 100 complete control)
# Method in brief: as §1
# [13] = tested on: galium; test: Test C postemergence; type: in vivo, Galium aparine; conditions: 10 days, 0 to 100 scale (0 no effect, 100 complete control)
# Method in brief: as §1
# [14] = tested on: blackgrass; test: Test C postemergence; type: in vivo, Alopecurus myosuroides; conditions: 10 days, 0 to 100 scale (0 no effect, 100 complete control)
# Method in brief: as §1
# [15] = tested on: barnyardgrass; test: Test C postemergence; type: in vivo, Echinochloa crusgalli; conditions: 10 days, 0 to 100 scale (0 no effect, 100 complete control)
# Method in brief: as §1
# [16] = tested on: horseweed; test: Test C postemergence; type: in vivo, Erigeron canadensis; conditions: 10 days, 0 to 100 scale (0 no effect, 100 complete control)
# Method in brief: as §1
# [17] = tested on: pigweed, palmer; test: Test C postemergence; type: in vivo, Amaranthus palmeri; conditions: 10 days, 0 to 100 scale (0 no effect, 100 complete control)
# Method in brief: as §1
# [18] = tested on: blackgrass; test: Test C preemergence; type: in vivo, Alopecurus myosuroides; conditions: 500 g ai/ha, preemergence; 0 to 100 scale (0 no effect, 100 complete control)
# Method in brief: as §1
# [19] = tested on: ducksalad; test: Test D flooded paddy test; type: in vivo, Heteranthera limosa; conditions: 250 g ai/ha, applied to paddy water, visual rating after 13 to 14 days, scale 0 to 100 (0 no effect, 100 complete control)
# Method in brief: (§2)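 At the 2-leaf stage, floodwater 3 cm deep received the test compound; that depth persisted throughout. Plants scored visually 13 to 14 days on, 0 (no effect) to 100 (complete control), dash indicating no result.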
# [20] = tested on: corn; test: Test C postemergence; type: in vivo, Zea mays; conditions: 10 days, 0 to 100 scale (0 no effect, 100 complete control)
# Method in brief: as §1
# [21] = tested on: sedge, umbrella; test: Test D flooded paddy test; type: in vivo, Cyperus difformis; conditions: 250 g ai/ha, applied to paddy water, visual rating after 13 to 14 days, scale 0 to 100 (0 no effect, 100 complete control)
# Method in brief: as §2
# [22] = tested on: barnyardgrass; test: Test D flooded paddy test; type: in vivo, Echinochloa crus-galli; conditions: 250 g ai/ha, applied to paddy water, visual rating after 13 to 14 days, scale 0 to 100 (0 no effect, 100 complete control)
# Method in brief: as §2
# [23] = tested on: rice; test: Test D flooded paddy test; type: in vivo, Oryza sativa; conditions: 250 g ai/ha, applied to paddy water, visual rating after 13 to 14 days, scale 0 to 100 (0 no effect, 100 complete control)
# Method in brief: as §2
# [24] = tested on: green foxtail; test: Test C preemergence; type: in vivo, Setaria viridis; conditions: preemergence, 0 to 100 scale (0 no effect, 100 complete control)
# Method in brief: as §1
# [25] = tested on: oat, wild; test: Test C preemergence; type: in vivo, Avena fatua; conditions: preemergence, 0 to 100 scale (0 no effect, 100 complete control)
# Method in brief: as §1
# [26] = tested on: barnyardgrass; test: Test C preemergence; type: in vivo, Echinochloa crusgalli; conditions: preemergence, 0 to 100 scale (0 no effect, 100 complete control)
# Method in brief: as §1
# [27] = tested on: soybean; test: Test C postemergence; type: in vivo, Glycine max; conditions: 10 days, 0 to 100 scale (0 no effect, 100 complete control)
# Method in brief: as §1
# [28] = tested on: wheat; test: Test C preemergence; type: in vivo, Triticum aestivum; conditions: preemergence, 0 to 100 scale (0 no effect, 100 complete control)
# Method in brief: as §1
structure (smiles),measurement,setting,value
Cc1cccc2c1O[C@@H](C)CN2C(=O)c1cccc(-n2cnc([N+](=O)[O-])n2)c1 [Compound 306],"Plant response rating, Oat, Wild","[1]; 500 g ai/ha, postemergence",0
same,"Plant response rating, Oat, Wild","[1]; Postemergence, 125 g ai/ha",0
same,"Plant response rating, Wheat","[2]; 500 g ai/ha, postemergence",10
same,"Plant response rating, Wheat","[2]; Postemergence, 125 g ai/ha",0
same,"Plant response rating, Ragweed","[3]; 500 g ai/ha, postemergence",0
same,"Plant response rating, Ragweed","[3]; Postemergence, 125 g ai/ha",30
same,Ragweed plant response rating,[4]; 500 g ai/ha,20
same,Ragweed plant response rating,"[4]; Test C, 125 g ai/ha",20
same,"Plant response rating, Foxtail, Green","[5]; 500 g ai/ha, postemergence",50
same,"Plant response rating, Foxtail, Green","[5]; Postemergence, 125 g ai/ha",30
same,"Plant response rating, Ryegrass, Italian","[6]; 500 g ai/ha, postemergence",0
same,"Plant response rating, Ryegrass, Italian","[6]; Postemergence, 125 g ai/ha",0
same,"Ryegrass, Italian plant response rating",[7]; 500 g ai/ha,40
same,"Ryegrass, Italian plant response rating","[7]; Test C, 125 g ai/ha",30
same,Kochia plant response rating,[8]; 500 g ai/ha,0
same,Kochia plant response rating,"[8]; Test C, 125 g ai/ha",0
same,Corn plant response rating,[9]; 500 g ai/ha,0
same,Corn plant response rating,"[9]; Test C, 125 g ai/ha",0
same,"Plant response rating, Kochia","[10]; 500 g ai/ha, postemergence",10
same,"Plant response rating, Kochia","[10]; Postemergence, 125 g ai/ha",10
same,"Pigweed, Palmer plant response rating",[11]; 500 g ai/ha,10
same,"Pigweed, Palmer plant response rating","[11]; Test C, 125 g ai/ha",0
same,Soybean plant response rating,[12]; 500 g ai/ha,0
same,Soybean plant response rating,"[12]; Test C, 125 g ai/ha",0
same,"Plant response rating, Galium","[13]; 500 g ai/ha, postemergence",50
same,"Plant response rating, Galium","[13]; Postemergence, 125 g ai/ha",30
same,"Plant response rating, Blackgrass","[14]; 500 g ai/ha, postemergence",10
same,"Plant response rating, Blackgrass","[14]; Postemergence, 125 g ai/ha",0
same,"Plant response rating, Barnyardgrass","[15]; 500 g ai/ha, postemergence",10
same,"Plant response rating, Barnyardgrass","[15]; Postemergence, 125 g ai/ha",10
same,"Plant response rating, Horseweed","[16]; 500 g ai/ha, postemergence",0
same,"Plant response rating, Horseweed","[16]; Postemergence, 125 g ai/ha",30
same,"Plant response rating, Pigweed, Palmer","[17]; 500 g ai/ha, postemergence",20
same,"Plant response rating, Pigweed, Palmer","[17]; Postemergence, 125 g ai/ha",0
same,Blackgrass plant response rating,[18],0
same,"Plant response rating, Ducksalad (Flood)",[19],0
same,"Plant response rating, Corn","[20]; 500 g ai/ha, postemergence",10
same,"Plant response rating, Corn","[20]; Postemergence, 125 g ai/ha",0
same,"Plant response rating, Sedge, Umbrella (Flood)",[21],0
same,"Plant response rating, Barnyardgrass (Flood)",[22],0
same,"Plant response rating, Rice (Flood)",[23],0
same,"Foxtail, Green plant response rating",[24]; 500 g ai/ha,50
same,"Foxtail, Green plant response rating","[24]; Test C, 125 g ai/ha",0
same,"Oat, Wild plant response rating",[25]; 500 g ai/ha,0
same,"Oat, Wild plant response rating","[25]; Test C, 125 g ai/ha",0
same,Barnyardgrass plant response rating,[26]; 500 g ai/ha,0
same,Barnyardgrass plant response rating,"[26]; Test C, 125 g ai/ha",0
same,"Plant response rating, Soybean","[27]; 500 g ai/ha, postemergence",90
same,"Plant response rating, Soybean","[27]; Postemergence, 125 g ai/ha",30
same,Wheat plant response rating,[28]; 500 g ai/ha,0
same,Wheat plant response rating,"[28]; Test C, 125 g ai/ha",0
